Key:
Assay in all cases: competitive isoTOP-ABPP
Assay type in all cases: binding
[1] = biological target: T1, KIAA1967 DBIRD complex subunit KIAA1967 (Homo sapiens, UniProt Q8N163)
T1 construct: isoTOP-ABPP experiments performed in cell lysates (in vitro); endogenous in cells; host or cells: soluble proteome of human cancer cell lines (MDA-MB-231; Ramos and Jurkat also prepared)
Method in brief: (§1)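 Lysate + fragment (50 μM activated ester / 100 μM guanidinylating agent) or DMSO → 0.1 mM STP-alkyne, 1 h, RT → CuAAC to TEV tags (compound light, DMSO heavy) → LC-MS. R = heavy/light MS1 area; liganded lysine if R≥4.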

[2] = biological target: T2, PFKL 6-phosphofructokinase, liver type (Homo sapiens, UniProt P17858); settings: for isoTOP-ABPP ratio, lysine P17858_K677: possible other lysine P17858_K681; for isoTOP-ABPP ratio, lysine P17858_K715: possible other lysine P17858_K714
T2 construct: isoTOP-ABPP experiments performed in cell lysates (in vitro); endogenous in cells; host or cells: soluble proteome of human cancer cell lines (MDA-MB-231; Ramos and Jurkat also prepared)
T2 sequence (P17858 1-780): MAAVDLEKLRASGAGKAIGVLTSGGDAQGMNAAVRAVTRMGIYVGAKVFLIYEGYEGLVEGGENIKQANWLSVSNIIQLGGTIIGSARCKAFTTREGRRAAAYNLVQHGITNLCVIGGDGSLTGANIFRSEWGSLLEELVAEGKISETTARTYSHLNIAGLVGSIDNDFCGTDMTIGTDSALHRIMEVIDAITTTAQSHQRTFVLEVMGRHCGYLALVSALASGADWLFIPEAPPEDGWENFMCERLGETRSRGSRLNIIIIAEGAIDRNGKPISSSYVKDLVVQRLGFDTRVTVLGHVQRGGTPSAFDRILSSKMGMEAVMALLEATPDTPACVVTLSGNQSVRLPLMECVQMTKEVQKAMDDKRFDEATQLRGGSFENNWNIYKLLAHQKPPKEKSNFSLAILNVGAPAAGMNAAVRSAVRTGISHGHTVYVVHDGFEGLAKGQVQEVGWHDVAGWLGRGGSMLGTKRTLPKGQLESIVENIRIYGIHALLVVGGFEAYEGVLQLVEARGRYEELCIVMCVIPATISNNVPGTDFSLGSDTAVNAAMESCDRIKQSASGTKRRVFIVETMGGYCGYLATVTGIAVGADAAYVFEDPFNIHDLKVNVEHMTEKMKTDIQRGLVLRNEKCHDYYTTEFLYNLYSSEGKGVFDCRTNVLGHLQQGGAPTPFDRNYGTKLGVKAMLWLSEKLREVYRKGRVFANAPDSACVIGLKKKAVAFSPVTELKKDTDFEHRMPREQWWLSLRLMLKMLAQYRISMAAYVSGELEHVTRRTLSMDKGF
Method in brief: as §1

[3] = biological target: T3, MAP2K3 Dual specificity mitogen-activated protein kinase (Homo sapiens, UniProt P46734)
T3 construct: isoTOP-ABPP experiments performed in cell lysates (in vitro); endogenous in cells; host or cells: soluble proteome of human cancer cell lines (MDA-MB-231; Ramos and Jurkat also prepared)
T3 sequence (P46734 1-347): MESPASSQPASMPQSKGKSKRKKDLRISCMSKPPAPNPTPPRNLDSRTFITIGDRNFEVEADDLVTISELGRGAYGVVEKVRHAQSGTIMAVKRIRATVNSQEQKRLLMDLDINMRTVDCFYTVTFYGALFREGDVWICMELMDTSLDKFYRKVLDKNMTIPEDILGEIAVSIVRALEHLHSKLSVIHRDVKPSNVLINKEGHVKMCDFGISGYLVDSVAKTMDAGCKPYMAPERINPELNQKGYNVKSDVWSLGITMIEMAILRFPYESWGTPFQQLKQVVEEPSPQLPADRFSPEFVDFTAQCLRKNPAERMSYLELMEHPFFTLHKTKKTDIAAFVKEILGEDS
Method in brief: as §1

DCTN2 Dynactin subunit 2 = biological target: T4, DCTN2 Dynactin subunit 2 (Homo sapiens, UniProt Q13561)
T4 construct: isoTOP-ABPP experiments performed in cell lysates (in vitro); endogenous in cells; host or cells: soluble proteome of human cancer cell lines (MDA-MB-231, Ramos, Jurkat)
T4 sequence (Q13561 whole entry): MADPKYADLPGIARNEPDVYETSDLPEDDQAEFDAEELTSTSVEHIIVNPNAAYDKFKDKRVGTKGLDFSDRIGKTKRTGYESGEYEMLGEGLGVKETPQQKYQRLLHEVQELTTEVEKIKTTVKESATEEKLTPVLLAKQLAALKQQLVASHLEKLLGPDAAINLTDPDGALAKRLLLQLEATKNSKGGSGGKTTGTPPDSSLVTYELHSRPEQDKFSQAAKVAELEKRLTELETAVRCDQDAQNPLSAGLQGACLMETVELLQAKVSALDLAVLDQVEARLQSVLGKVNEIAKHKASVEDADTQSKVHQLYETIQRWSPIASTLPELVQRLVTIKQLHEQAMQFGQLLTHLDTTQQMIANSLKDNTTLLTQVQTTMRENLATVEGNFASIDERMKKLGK
Method in brief: as §1

T1 sequence (Q8N163 whole entry, one chain of several): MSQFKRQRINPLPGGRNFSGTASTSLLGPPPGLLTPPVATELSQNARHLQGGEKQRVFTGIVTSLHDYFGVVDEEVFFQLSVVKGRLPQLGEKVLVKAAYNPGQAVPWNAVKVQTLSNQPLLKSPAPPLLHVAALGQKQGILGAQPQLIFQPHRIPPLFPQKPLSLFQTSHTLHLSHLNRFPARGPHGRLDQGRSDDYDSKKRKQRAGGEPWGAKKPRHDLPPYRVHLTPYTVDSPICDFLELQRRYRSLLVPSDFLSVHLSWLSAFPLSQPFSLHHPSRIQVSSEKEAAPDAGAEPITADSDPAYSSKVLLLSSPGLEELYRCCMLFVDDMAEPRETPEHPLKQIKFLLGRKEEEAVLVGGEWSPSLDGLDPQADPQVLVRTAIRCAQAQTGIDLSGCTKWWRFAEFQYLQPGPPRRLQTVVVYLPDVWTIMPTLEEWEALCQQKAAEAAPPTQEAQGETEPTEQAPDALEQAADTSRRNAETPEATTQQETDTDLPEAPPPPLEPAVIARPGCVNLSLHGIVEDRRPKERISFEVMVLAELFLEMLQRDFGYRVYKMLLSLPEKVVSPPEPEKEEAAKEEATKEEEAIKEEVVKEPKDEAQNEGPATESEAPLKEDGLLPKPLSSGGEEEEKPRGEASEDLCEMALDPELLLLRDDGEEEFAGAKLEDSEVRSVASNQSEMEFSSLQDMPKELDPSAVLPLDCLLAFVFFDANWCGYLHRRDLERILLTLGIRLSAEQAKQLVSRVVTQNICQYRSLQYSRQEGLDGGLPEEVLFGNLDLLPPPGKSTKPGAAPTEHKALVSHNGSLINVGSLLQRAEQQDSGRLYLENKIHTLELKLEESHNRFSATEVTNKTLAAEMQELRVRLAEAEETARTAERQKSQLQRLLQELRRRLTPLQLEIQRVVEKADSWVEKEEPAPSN

Structure (SMILES)	isoTOP-ABPP ratio, lysine Q8N163_K97 ([1]; 50 uM_231_sol_in vitro)	isoTOP-ABPP ratio, lysine Q8N163_K112 ([1]; 50 uM_231_sol_in vitro)	isoTOP-ABPP ratio, lysine P17858_K315 ([2]; 50 uM_231_sol_in vitro)	isoTOP-ABPP ratio, lysine P17858_K677 ([2]; 50 uM_231_sol_in vitro)	isoTOP-ABPP ratio, lysine P17858_K715 ([2]; 50 uM_231_sol_in vitro)	isoTOP-ABPP ratio, lysine P46734_K93 ([3]; 50 uM_231_sol_in vitro)	isoTOP-ABPP ratio, lysine Q13561_K175 (DCTN2 Dynactin subunit 2; 50 uM_231_sol_in vitro)	isoTOP-ABPP ratio, lysine Q8N163_K97 ([1]; 100 uM_231_sol_in vitro)	isoTOP-ABPP ratio, lysine Q8N163_K112 ([1]; 100 uM_231_sol_in vitro)	isoTOP-ABPP ratio, lysine P17858_K715 ([2]; 100 uM_231_sol_in vitro)	isoTOP-ABPP ratio, lysine P46734_K93 ([3]; 100 uM_231_sol_in vitro)	isoTOP-ABPP ratio, lysine Q13561_K175 (DCTN2 Dynactin subunit 2; 100 uM_231_sol_in vitro)	isoTOP-ABPP ratio, lysine P17858_K677 ([2]; 100 uM_231_sol_in vitro)
O=C(ON1C(=O)CCC1=O)c1cc(C(F)(F)F)cc(C(F)(F)F)c1 [fragment 46, 3,5-Bis(trifluoromethyl)benzoic acid NHS ester]	0.9	1.1	0.6	1.4	0.8	1.3	0.8						
O=C(Oc1c(F)c(F)c(C(F)(F)F)c(F)c1F)c1cc(C(F)(F)F)cc(C(F)(F)F)c1 [fragment 47, 2,3,5,6-Tetrafluoro-4-(trifluoromethyl)phenyl 3,5-bis(trifluoromethyl)benzoate]	0.9	1.5	1.0	1.0	1.0	1.1	1.0						
O=C(Oc1c(F)c(F)cc(F)c1F)c1cc(C(F)(F)F)cc(C(F)(F)F)c1 [fragment 48, 2,3,5,6-Tetrafluorophenyl 3,5-bis(trifluoromethyl)benzoate]	0.6	1.0	0.7	0.9	1.0	1.1	0.7						
COC(=O)NC(=NC(=O)OCC1c2ccccc2-c2ccccc21)n1cccn1 [fragment 49, N-Methoxycarbonyl-N′-9-fluorenylmethoxycarbonyl-pyrazole-1-carboxamidine]								9.4	20.0	1.8	6.8	1.5	
CC(C)(C)OC(=O)N=C(NC(=O)OC(C)(C)C)n1cccn1 [fragment 50, reference compound]								3.9	4.7	2.9	1.8	1.3	20.0
NC(=O)c1cc(C(F)(F)F)cc(C(F)(F)F)c1 [fragment 51, reference compound]	0.8	0.8		0.9	0.9	1.0	0.9						

Reference: US20210255193A1, “LYSINE REACTIVE PROBES AND USES THEREOF” (The Scripps Research Institute, priority 2017, published 2021)
